Data published in ChEMBL document CHEMBL2429856, “Benzazepinones and benzoxazepinones as antagonists of inhibitor of apoptosis proteins (IAPs) selective for the second baculovirus IAP repeat (BIR2) domain” (J Med Chem, 2013).
Values belong to the compound of their own block, whether it stands above or below them.

Key:
[1] = target: T1, E3 ubiquitin-protein ligase XIAP (Homo sapiens, UniProt P98170)
[2] = target: T2, Cytochrome P450 3A4 (Homo sapiens, UniProt P08684); test: Induction of CYP3A4 (unknown origin); format: ADME
[3] = target: T2, Cytochrome P450 3A4; test: Time dependent inhibition of CYP3A4 (unknown origin); format: ADME
[4] = target: T2, Cytochrome P450 3A4; test: Inhibition of CYP3A4 (unknown origin); format: ADME
[5] = target: T3, Baculoviral IAP repeat-containing protein 2 (Homo sapiens, UniProt Q13490); test: Inhibition of His-thrombin-TEV-tagged cIAP1 BIR3 domain (260 to 352) (unknown origin) after 1 hr by TR-FRET assay
[6] = target: T3, Baculoviral IAP repeat-containing protein 2; test: Inhibition of His-thrombin-TEV-tagged cIAP1 BIR2 domain (174 to 256) (unknown origin) after 1 hr by TR-FRET assay
[7] = Oral bioavailability in mouse at 10 mg/kg; format: ADME, organism-based; settings: in vivo
[8] = Cmax in mouse at 10 mg/kg, po; format: ADME, organism-based; parameters: dose 10 mg/kg, route oral; settings: in vivo
[9] = Half life in mouse at 10 mg/kg, po; format: ADME, organism-based; parameters: dose 10 mg/kg, route oral; settings: in vivo
[10] = AUC in mouse at 10 mg/kg, po; format: ADME, organism-based; parameters: dose 10 mg/kg, route oral; settings: plasma
[11] = Clearance in mouse at 1 mg/kg, iv; format: ADME, organism-based; parameters: dose 1 mg/kg, route intravenous; settings: in vivo
[12] = Volume of distribution at steady state in mouse at 1 mg/kg, iv; format: ADME, organism-based; parameters: dose 1 mg/kg, route intravenous; settings: in vivo, read-out: Vdss
[13] = Half life in mouse at 1 mg/kg, iv; format: ADME, organism-based; parameters: dose 1 mg/kg, route intravenous; settings: in vivo
[14] = AUC in mouse at 1 mg/kg, iv; format: ADME, organism-based; parameters: dose 1 mg/kg, route intravenous; settings: plasma
[15] = Cmax in mouse at 1 mg/kg, iv; format: ADME, organism-based; parameters: dose 1 mg/kg, route intravenous; settings: in vivo
[16] = tested on: Plasma; test: In vivo metabolic stability in rat plasma assessed as hydrolysis of the alanine amide at 4 mg/kg, iv; format: ADME, organism-based; parameters: dose 4 mg/kg, route intravenous
[17] = In vivo metabolic stability in rat urine assessed as hydrolysis of the alanine amide at 4 mg/kg, iv; format: ADME, organism-based; parameters: dose 4 mg/kg, route intravenous
[18] = Metabolic stability in rat blood assessed as compound remaining at 1 uM after 4 hrs by LC-MS/MS analysis; format: ADME, tissue-based; settings: read-out: Stability
[19] = Clearance in rat at 2 mg/kg, iv; format: ADME, organism-based; parameters: dose 2 mg/kg, route intravenous; settings: in vivo
[20] = tested on: Hepatocyte; test: Drug metabolism in human hepatocytes assessed as demethylation of methoxy group of naphthalene; format: ADME, cell-based
[21] = tested on: Hepatocyte; test: Drug metabolism in rat hepatocytes assessed as demethylation of methoxy group of naphthalene; format: ADME, cell-based
[22] = tested on: Hepatocyte; test: Drug metabolism in human hepatocytes assessed as demethylation of N-methyl-L-alanine; format: ADME, cell-based
[23] = tested on: Hepatocyte; test: Drug metabolism in rat hepatocytes assessed as demethylation of N-methyl-L-alanine; format: ADME, cell-based
[24] = target: T1, E3 ubiquitin-protein ligase XIAP; remark: listed apart in the source

T2 sequence (P08684 whole entry): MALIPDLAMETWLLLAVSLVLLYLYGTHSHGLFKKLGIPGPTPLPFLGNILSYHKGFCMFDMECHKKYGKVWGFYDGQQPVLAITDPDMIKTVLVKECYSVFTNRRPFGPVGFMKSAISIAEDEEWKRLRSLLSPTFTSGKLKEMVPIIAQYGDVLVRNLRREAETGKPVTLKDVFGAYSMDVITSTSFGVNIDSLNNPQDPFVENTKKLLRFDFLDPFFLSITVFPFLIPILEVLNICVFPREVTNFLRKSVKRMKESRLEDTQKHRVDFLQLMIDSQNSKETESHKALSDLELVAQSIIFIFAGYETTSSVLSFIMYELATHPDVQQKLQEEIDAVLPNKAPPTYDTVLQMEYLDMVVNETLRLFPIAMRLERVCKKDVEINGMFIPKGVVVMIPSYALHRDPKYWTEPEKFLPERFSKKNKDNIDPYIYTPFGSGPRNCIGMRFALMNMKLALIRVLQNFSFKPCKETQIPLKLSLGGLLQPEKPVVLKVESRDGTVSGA
T1 sequence (P98170 whole entry): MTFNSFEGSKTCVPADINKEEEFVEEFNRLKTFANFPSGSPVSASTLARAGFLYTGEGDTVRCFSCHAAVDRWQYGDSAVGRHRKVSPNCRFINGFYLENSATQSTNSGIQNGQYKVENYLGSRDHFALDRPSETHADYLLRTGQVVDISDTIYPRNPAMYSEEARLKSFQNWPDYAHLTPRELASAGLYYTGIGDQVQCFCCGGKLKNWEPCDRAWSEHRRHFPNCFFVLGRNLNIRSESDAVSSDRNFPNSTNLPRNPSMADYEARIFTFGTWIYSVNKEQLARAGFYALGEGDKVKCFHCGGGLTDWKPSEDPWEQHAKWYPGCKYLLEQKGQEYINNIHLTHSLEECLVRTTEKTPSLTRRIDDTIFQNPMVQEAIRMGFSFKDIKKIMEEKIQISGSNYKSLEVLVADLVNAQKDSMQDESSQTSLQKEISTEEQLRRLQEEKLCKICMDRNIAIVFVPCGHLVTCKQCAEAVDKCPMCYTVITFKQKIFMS
T3 sequence (Q13490 whole entry, the tested form may be a part): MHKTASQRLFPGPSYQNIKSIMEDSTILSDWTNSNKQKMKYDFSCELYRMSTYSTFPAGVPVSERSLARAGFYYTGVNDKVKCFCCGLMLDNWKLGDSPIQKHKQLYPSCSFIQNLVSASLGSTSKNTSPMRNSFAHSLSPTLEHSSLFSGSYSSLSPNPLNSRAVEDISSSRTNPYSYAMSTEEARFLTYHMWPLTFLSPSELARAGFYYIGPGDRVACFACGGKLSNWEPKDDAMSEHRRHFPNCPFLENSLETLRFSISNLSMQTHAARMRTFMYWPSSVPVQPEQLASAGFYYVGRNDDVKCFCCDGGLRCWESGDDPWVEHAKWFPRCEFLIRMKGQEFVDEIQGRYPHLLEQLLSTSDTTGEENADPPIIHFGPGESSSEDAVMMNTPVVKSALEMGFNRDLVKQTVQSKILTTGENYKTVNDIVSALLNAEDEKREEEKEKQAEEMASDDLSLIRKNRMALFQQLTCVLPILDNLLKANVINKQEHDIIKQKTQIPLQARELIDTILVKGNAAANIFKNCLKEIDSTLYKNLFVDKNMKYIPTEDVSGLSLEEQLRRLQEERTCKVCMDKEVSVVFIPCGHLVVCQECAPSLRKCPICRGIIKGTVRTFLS

IC50 [1]: > 54.8 µM
Structure (SMILES): CN[C@@H](C)C(=O)N[C@@H]1C(=O)N(Cc2nn(-c3ccccc3C#N)c3ccccc23)c2ccccc2OC12CCOCC2

Activity [2]: Active
inhibition (INH) [3]: Active
inhibition (INH) [4]: Active
IC50 [5]: > 55 µM
IC50 [6]: 0.271 µM
bioavailability [7]: 53%
Cmax [8]: 647 ng/mL
half-life [9]: 5 h
AUC [10]: 2860 ng·h/mL
clearance [11]: 33 mL/min/kg
Vd [12]: 8.6 L/kg
half-life [13]: 6.9 h
AUC [14]: 543 ng·h/mL
Cmax [15]: 495 ng/mL
Structure (SMILES): CN[C@@H](C)C(=O)N[C@@H]1C(=O)N(Cc2c(C#N)n(-c3ccccc3C#N)c3ccccc23)c2ccccc2OC12CCOCC2.Cl

Structure (SMILES): CN[C@@H](C)C(=O)N[C@H]1CCc2ccccc2N(Cc2cccc3ccccc23)C1=O
IC50 [1]: > 54 µM

Structure (SMILES): CN[C@@H](C)C(=O)N[C@H]1CCc2ccccc2N(Cc2ccc(C)c3ccccc23)C1=O
IC50 [1]: > 54 µM

Structure (SMILES): CN[C@@H](C)C(=O)N[C@H]1CCc2ccccc2N(Cc2c(C)ccc3ccccc23)C1=O
IC50 [1]: > 54 µM

Structure (SMILES): CN[C@@H](C)C(=O)N[C@H]1CCc2ccccc2N(Cc2c(OC)ccc3ccccc23)C1=O
IC50 [1]: > 54 µM

Structure (SMILES): CN[C@@H](C)C(=O)N[C@H]1CCc2ccccc2N(Cc2c(OC)ccc3cc(Br)ccc23)C1=O.Cl
Stability [16]: Unstable
Stability [17]: Unstable
remaining at 4 h, 1 µM [18]: 40%
clearance [19]: 116 mL/min/kg
IC50 [1]: > 54 µM

Structure (SMILES): CN[C@H](C)C(=O)N[C@H]1CCc2ccccc2N(Cc2c(OC)ccc3cc(Br)ccc23)C1=O
IC50 [1]: > 54 µM

Structure (SMILES): COc1ccc2cc(Br)ccc2c1CN1C(=O)[C@@H](NC(=O)[C@@H](N)[C@H](C)O)CCc2ccccc21
IC50 [1]: > 54 µM

Structure (SMILES): CCN[C@@H](C)C(=O)N[C@H]1CCc2ccccc2N(Cc2c(OC)ccc3cc(Br)ccc23)C1=O
IC50 [1]: > 54 µM

remaining at 4 h, 1 µM [18]: 7%
Structure (SMILES): CN[C@@H](C)C(=O)N[C@H]1COc2ccccc2N(Cc2c(OC)ccc3cc(Br)ccc23)C1=O

Drug metabolism [20]: Active
Drug metabolism [21]: Active
Drug metabolism [22]: Active
Drug metabolism [23]: Active
remaining at 4 h, 1 µM [18]: 88%
Structure (SMILES): CN[C@@H](C)C(=O)N[C@@H]1C(=O)N(Cc2c(OC)ccc3cc(Br)ccc23)c2ccccc2OC12CCOCC2.Cl

IC50 [1]: > 54.2 µM
IC50 [24]: 14.4 µM
Structure (SMILES): C[C@H](N)C(=O)N[C@@H]1C(=O)N(C)CCc2ccccc21

Structure (SMILES): CN[C@@H](C)C(=O)N[C@H]1CCc2ccccc2N(Cc2ccccc2)C1=O
IC50 [1]: > 54 µM

Structure (SMILES): CN[C@@H](C)C(=O)N[C@H]1CCc2ccccc2N(CCc2ccccc2)C1=O
IC50 [1]: > 54 µM

Structure (SMILES): CN[C@@H](C)C(=O)N[C@H]1CCc2ccccc2N(Cc2ccc3ccccc3c2)C1=O
IC50 [1]: > 54 µM
